Results on 26 compounds are retold here after ChEMBL document CHEMBL4602633, “Discovery of coumarin-based selective aldehyde dehydrogenase 1A1 inhibitors with glucose metabolism improving activity” (Eur J Med Chem, 2020).

Each structure is given as a SMILES string.

Data set [1] deals with T1, Aldehyde dehydrogenase 1A1 (Homo sapiens) (UniProt P00352).
T1 sequence (whole entry): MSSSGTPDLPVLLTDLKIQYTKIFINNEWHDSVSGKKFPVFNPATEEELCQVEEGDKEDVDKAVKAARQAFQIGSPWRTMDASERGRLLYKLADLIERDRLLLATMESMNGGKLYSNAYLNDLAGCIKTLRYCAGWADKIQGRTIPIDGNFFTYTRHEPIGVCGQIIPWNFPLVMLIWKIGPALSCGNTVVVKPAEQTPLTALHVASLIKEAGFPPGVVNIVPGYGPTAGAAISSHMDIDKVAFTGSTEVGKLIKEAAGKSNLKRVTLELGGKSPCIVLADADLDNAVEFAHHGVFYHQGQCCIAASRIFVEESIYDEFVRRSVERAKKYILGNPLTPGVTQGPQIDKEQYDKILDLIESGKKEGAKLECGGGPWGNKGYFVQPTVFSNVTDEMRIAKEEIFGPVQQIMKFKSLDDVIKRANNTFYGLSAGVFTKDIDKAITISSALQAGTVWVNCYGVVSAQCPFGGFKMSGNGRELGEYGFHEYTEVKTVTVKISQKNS
Description: Inhibition of N-terminal Met/His6-tagged recombinant human ALDH1A1 (Ser2-Ser501 residues) expressed in Escherichia coli cells at 10 uM using propionaldehyde as substrate preincubated for 15 mins followed by substrate addition by spectrophotometric method relative to control.

The target in data set [2] is T2, Aldehyde dehydrogenase 1A1 (Homo sapiens, UniProt P00352).
T2 sequence (P00352 whole entry): T1 sequence (whole entry)
The experiment in a line: Inhibition of N-terminal Met/His6-tagged recombinant human ALDH1A1 (Ser2-Ser501 residues) expressed in Escherichia coli cells using propionaldehyde as substrate preincubated for 15 mins followed by substrate addition by spectrophotometric method.

Data set [3] addresses T3, Retinal dehydrogenase 2 (Homo sapiens) (UniProt O94788).
T3 sequence (whole entry): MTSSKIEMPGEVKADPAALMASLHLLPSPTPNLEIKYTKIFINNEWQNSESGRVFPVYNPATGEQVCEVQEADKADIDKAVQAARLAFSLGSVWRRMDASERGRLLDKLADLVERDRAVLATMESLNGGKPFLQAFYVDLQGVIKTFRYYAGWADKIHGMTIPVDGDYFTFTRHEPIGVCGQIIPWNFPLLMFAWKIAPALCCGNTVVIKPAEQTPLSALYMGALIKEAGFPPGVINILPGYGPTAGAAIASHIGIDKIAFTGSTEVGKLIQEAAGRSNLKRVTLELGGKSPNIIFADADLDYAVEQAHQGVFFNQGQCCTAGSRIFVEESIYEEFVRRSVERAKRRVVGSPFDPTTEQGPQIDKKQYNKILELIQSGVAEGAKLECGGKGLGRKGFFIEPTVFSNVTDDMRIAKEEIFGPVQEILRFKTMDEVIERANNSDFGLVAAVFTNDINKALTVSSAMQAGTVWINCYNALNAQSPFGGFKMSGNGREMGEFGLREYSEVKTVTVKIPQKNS
The experiment in a line: Inhibition of recombinant N-terminal His6-tagged human ALDH1A2 (Met1 to Ser518 residues) expressed in Escherichia coli at 10 uM using propionaldehyde as substrate preincubated for 15 mins followed by substrate addition by spectrophotometric method relative to control.

For data set [4], the target named is T4, Retinaldehyde dehydrogenase 3 (Homo sapiens) (UniProt P47895).
T4 sequence (whole entry): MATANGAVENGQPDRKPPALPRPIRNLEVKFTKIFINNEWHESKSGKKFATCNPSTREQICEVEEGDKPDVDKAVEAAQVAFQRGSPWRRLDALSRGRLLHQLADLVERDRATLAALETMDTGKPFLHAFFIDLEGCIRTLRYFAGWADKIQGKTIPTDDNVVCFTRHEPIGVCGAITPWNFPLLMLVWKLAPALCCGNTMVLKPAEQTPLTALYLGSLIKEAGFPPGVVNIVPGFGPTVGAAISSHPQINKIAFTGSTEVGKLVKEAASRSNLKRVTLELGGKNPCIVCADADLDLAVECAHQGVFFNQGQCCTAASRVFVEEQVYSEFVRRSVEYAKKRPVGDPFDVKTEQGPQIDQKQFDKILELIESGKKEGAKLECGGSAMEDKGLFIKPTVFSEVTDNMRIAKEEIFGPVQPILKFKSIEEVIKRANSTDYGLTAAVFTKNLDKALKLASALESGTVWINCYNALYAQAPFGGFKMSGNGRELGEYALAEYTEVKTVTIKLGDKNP
The experiment in a line: Inhibition of recombinant N-terminal His6-tagged human ALDH1A3 (Met1 to Pro512 reisudes) expressed in Escherichia coli at 10 uM using propionaldehyde as substrate preincubated for 15 mins followed by substrate addition by spectrophotometric method relative to control.

Data set [5] concerns the target T5, Aldehyde dehydrogenase, dimeric NADP-preferring (Homo sapiens) (UniProt P30838).
T5 sequence (whole entry): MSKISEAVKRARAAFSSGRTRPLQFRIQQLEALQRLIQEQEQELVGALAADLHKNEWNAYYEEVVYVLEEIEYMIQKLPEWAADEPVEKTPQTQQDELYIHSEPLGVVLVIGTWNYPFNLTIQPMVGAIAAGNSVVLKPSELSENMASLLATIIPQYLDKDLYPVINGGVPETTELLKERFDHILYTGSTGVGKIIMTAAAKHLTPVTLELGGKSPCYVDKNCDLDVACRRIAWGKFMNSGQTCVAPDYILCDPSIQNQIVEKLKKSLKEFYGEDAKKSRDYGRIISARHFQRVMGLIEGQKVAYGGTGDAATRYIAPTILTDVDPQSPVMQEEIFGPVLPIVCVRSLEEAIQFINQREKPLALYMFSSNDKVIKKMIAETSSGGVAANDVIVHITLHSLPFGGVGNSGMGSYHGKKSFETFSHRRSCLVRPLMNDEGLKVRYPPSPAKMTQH
Description: Inhibition of recombinant C-terminal His6-tagged human ALDH3A1 (Met1 to His453 residues) expressed in mammalian expression system at 10 uM using benzaldehyde as substrate preincubated for 15 mins followed by substrate addition by spectrophotometric method relative to control.

In data set [6] the target is T6, Aldehyde dehydrogenase, mitochondrial (Homo sapiens) (UniProt P05091).
T6 sequence (whole entry): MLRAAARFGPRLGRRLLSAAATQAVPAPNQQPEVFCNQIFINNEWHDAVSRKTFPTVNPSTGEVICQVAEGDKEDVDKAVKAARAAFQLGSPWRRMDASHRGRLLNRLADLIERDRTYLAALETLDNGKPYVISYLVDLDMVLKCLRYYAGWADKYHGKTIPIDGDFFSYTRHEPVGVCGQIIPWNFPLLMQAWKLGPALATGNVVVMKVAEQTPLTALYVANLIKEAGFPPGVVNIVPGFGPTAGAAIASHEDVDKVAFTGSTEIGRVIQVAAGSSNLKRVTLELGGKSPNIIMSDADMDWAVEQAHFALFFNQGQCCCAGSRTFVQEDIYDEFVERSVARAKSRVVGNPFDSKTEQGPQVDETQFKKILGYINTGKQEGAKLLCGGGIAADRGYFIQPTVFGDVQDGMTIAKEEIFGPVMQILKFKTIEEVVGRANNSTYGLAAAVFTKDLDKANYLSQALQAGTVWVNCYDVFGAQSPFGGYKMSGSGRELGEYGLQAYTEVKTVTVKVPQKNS
Description: Inhibition of recombinant human ALDH2 at 10 uM using propionaldehyde as substrate preincubated for 15 mins followed by substrate addition by spectrophotometric method relative to control.

The nature of data set [7]: Half life in human liver microsomes at 2 ug/ml preincubated for 5 mins followed by NADPH addition and measured up to 45 mins by LC-MS/MS analysis. Format: ADME, Microsome.

As usually defined, the inhibition is the relative decrease from the control value, in per cent. For `CC(C)=CCN(C(=O)CCN1CCN(C(=O)c2ccccc2F)CC1)c1ccc2c(C)cc(=O)oc2c1`, in data set [1], the inhibition worked out at 51.8%.
On the same count and under the same terms, the value for `CC(C)=CCN(C(=O)CCN1CCN(C(=O)c2cccnc2)CC1)c1ccc2c(C)cc(=O)oc2c1` was 26.6%; that for `CC(C)=CCN(C(=O)CCN1CCN(C(=O)c2ccc3c(c2)OCO3)CC1)c1ccc2c(C)cc(=O)oc2c1` was 50.8%.
Broadly, the IC50 is the concentration at which inhibition is half-maximal. As a reminder, the half-life is the time in which the quantity being followed falls by half. Higher therefore signals slow decline. Consider `CC(C)=CCN(C(=O)CCN1CCN(C(=O)c2ccco2)CC1)c1ccc2c(C)cc(=O)oc2c1`, for which the IC50 in data set [2] worked out at 1.96 µM. For the same compound, the inhibition in data set [3] worked out at 1.95%; in data set [4], 1.34%; in data set [5], 0.78%; in data set [6], 1.87%; in data set [1] it was 76.5%. In data set [7], this compound yielded a half-life at 2 ug/ml of 7 min.
In the case of `CCCN(C(=O)CCN1CCN(C(=O)c2ccco2)CC1)c1ccc2c(C)cc(=O)oc2c1`, the inhibition in data set [1] is 50.7%.
Same read-out and setting: next, `Cc1cc(=O)oc2cc(N(CC3CCC3)C(=O)CCN3CCN(C(=O)c4ccco4)CC3)ccc12`: 35.1%; `CC(C)=CCN(C(=O)CCN1CCN(C(=O)c2ccc(F)cc2)CC1)c1ccc2c(C)cc(=O)oc2c1`: 25.1%.
The same measure, in the same setting: the value for `Cc1ccccc1CN(C(=O)CCN1CCN(C(=O)c2ccco2)CC1)c1ccc2c(C)cc(=O)oc2c1` was 13.2%.
As for `Cc1cc(=O)oc2cc(N(CCC(C)C)C(=O)CCN3CCN(C(=O)c4ccco4)CC3)ccc12`, the inhibition in data set [1] was found to be 25.5%.
Regarding `COc1ccc(C(=O)N2CCN(CCC(=O)N(CC=C(C)C)c3ccc4c(C)cc(=O)oc4c3)CC2)cc1`, the IC50 in data set [2] was determined as 5.86 µM. The inhibition was 1.98% in data set [3]; 1.04% in data set [4]; 0.82% in data set [5]; 0.62% in data set [6]; 65.2% in data set [1].
Regarding `Cc1cc(=O)oc2cc(N(Cc3ccccc3)C(=O)CCN3CCN(C(=O)c4ccco4)CC3)ccc12`, the inhibition in data set [1] is 2.96%.
On to `CC(C)=CCN(C(=O)CCN1CCN(C(=O)c2ccc(C)cc2)CC1)c1ccc2c(C)cc(=O)oc2c1`, for which the inhibition in data set [1] was found to be 49.7%.
`CC(C)=CCN(C(=O)CCN1CCN(C(=O)c2ccc(C#N)cc2)CC1)c1ccc2c(C)cc(=O)oc2c1`: the inhibition in data set [1] was determined as 34.1%.
Same read-out and setting: next, `Cc1ccc(CN(C(=O)CCN2CCN(C(=O)c3ccco3)CC2)c2ccc3c(C)cc(=O)oc3c2)cc1`: 6.43%.
In the case of `Cc1cccc(CN(C(=O)CCN2CCN(C(=O)c3ccco3)CC2)c2ccc3c(C)cc(=O)oc3c2)c1`, the inhibition in data set [1] came out at 9.77%.
On to `CC(C)=CCN(C(=O)CCN1CCN(C(=O)c2ccncc2)CC1)c1ccc2c(C)cc(=O)oc2c1`, for which the inhibition in data set [1] turned out to be 23.5%.
On to `CC(C)=CCN(C(=O)CCN1CCN(C(=O)c2ccc(C(F)(F)F)cc2)CC1)c1ccc2c(C)cc(=O)oc2c1`, for which the inhibition in data set [1] came to 33.7%.
As to `Cc1cc(=O)oc2cc(N(CC3CCCC3)C(=O)CCN3CCN(C(=O)c4ccco4)CC3)ccc12`, the inhibition in data set [1] was 17.4%.
Still for that read-out and setting: the value for `CCCCN(C(=O)CCN1CCN(C(=O)c2ccco2)CC1)c1ccc2c(C)cc(=O)oc2c1` was 26.5%.
Still for that read-out and setting: next, `CC(C)=CCN(C(=O)CN1CCN(C(=O)c2ccco2)CC1)c1ccc2c(C)cc(=O)oc2c1`: 33.6%.
For the compound `CC(C)=CCN(C(=O)CCN1CCN(C(=O)c2cccc([N+](=O)[O-])c2)CC1)c1ccc2c(C)cc(=O)oc2c1`, the IC50 in data set [2] stood at 29.3 µM. For the same compound, the inhibition in data set [1] was determined as 55.4%.
In the case of `CC(C)=CCN(C(=O)CCCN1CCN(C(=O)c2ccco2)CC1)c1ccc2c(C)cc(=O)oc2c1`, the inhibition in data set [1] stood at 4.77%.
Same read-out and setting: the value for `Cc1cc(=O)oc2cc(N(CC3CCCCC3)C(=O)CCN3CCN(C(=O)c4ccco4)CC3)ccc12` was 26.2%.
Turning to `CC(C)=CCN(C(=O)CCN1CCN(C(=O)c2ccc(C(C)C)cc2)CC1)c1ccc2c(C)cc(=O)oc2c1`, the IC50 in data set [2] is 2.75 µM. In addition, the inhibition in data set [3] came to 2.25%; in data set [4], 2.65%; in data set [5], 0.96%; in data set [6], 0.85%; in data set [1], 77.3%.
Turning to `Cc1cc(=O)oc2cc(N(CC3CC3)C(=O)CCN3CCN(C(=O)c4ccco4)CC3)ccc12`, in data set [1], the inhibition was determined as 32%.
Still for that read-out and setting: the value for `CC(C)=CCN(C(=O)CCN1CCN(C(=O)c2ccc([N+](=O)[O-])cc2)CC1)c1ccc2c(C)cc(=O)oc2c1` was 47.1%.
